Results from patent EP0603240B1, “SAFENING HERBICIDAL PYRAZOLYLSULFONYLUREAS” (priority 1991, dated 1993).

Legend:
[1] = system: corn; assay: Example 5, Procedure I: Herbicide No. 1 + alachlor (No. 7) with Antidote Nos. 15 and 16; format: in vivo; conditions: Herbicide No.1 6.72 + No.7 2.24 kg/ha + antidote 2.24 kg/ha
Description: (§1) Containers were filled and compacted with a fumigated silt loam top soil to a depth of about 1.3 cm from the top of the container. A first container was designated as an untreated control, a second container was designated as a herbicide control, and a third container was designated as a herbicide + antidote test container. Each of the containers was seeded with a crop species. A measured amount of herbicide dispersed or dissolved in acetone was applied to a measured quantity of soil. To this same quantity of soil treated with herbicide, there was added a measured amount of antidote dispersed or dissolved in acetone. The quantity of soil treated with the herbicide and antidote was thoroughly mixed to incorporate the herbicide and antidote in the soil uniformly. The seed bed in the third container of soil was covered with the soil treated with the herbicide and antidote and the container was leveled. For each test series, the seed beds of the first and second containers were likewise covered by soil layers. the cover layer of the first container was not treated with herbicide or antidote.
(§2) The containers were then placed on a bench in a greenhouse and sub-irrigated as required for the duration of the test. […] Plant response is measured in terms of percent injury. Antidote efficacy is indicated as the difference in plant injury by the herbicide(s) without the antidote and with the antidote.
This example describes tests with Antidote Nos. 15 and 16 to safen Herbicide No. 1 according to Procedure I using corn and the weeds barnyardgrass and velvetleaf as the test plants.
In the tests described in this example, the same procedure described in Example 4 was performed simultaneously therewith and under the same conditions, except that a co-herbicide, alachlor, was included in the same composition with Herbicide No. 1 and Antidote Nos. 15 and 16. Alachlor (Herbicide No. 7 herein) is the active ingredient in the commercial product LASSO® herbicide.

[2] = system: corn; assay: Example 25, greenhouse post-emergence test: Antidote Nos. 1 and 2 against Herbicide Nos. 1-3; format: in vivo, Corn (Pioneer 3424 variety); conditions: Herbicide Nos. 1-3
Description: Additional tests were conducted in the greenhouse in order to evaluate the antidotal efficacy of Antidote Nos. 1 (dichlormid) and 2 (naphthalic anhydride) in protecting corn from the herbicidal activity of Herbicide Nos. 1-3 (i.e., NC-319, NC-319 EX and NC-311, respectively). The chemicals were tested in both preemergence and post-emergence modes of application. The herbicides were prepared and applied as wettable powders; dichlormid was applied as an emulsifiable concentrate, while the naphthalic anhydride was applied as a coating on the corn seed prior to planting.
Corn seeds (Pioneer 3424 variety) were planted in alluvial soil containing compost and fertilizer in pots 12 cm. in diameter. Test chemicals were applied with a spray gun at the spray volume rate of 11.2 l/ha at the time of seeding in the preemergence tests and seven (7) days after seeding in the post-emergence tests, when the check (control) plants were at the 16-20 cm., 3.0-3.2 leaf stage, and naphthalic anhydride coated seed grown plants were at the 14-16 cm., 2.8-3.0 leaf stage.
(§3) Test data from the preemergence tests are shown in Table 25A and from the post-emergence tests in Table 25B. In the tables, the concentration of chemicals is shown in terms of active ingredient in grams per hectare (G/ha); concentrations of the naphthalic anhydride were not measured per se, but were present as in conventional, normally-coated applications. Corn injury is shown in terms of percent inhibition of growth.

[3] = system: corn; assay: Example 25, greenhouse preemergence test: Antidote Nos. 1 and 2 against Herbicide Nos. 1-3; format: in vivo, Corn (Pioneer 3424 variety); conditions: preemergence
Description: The chemicals were tested in both preemergence and post-emergence modes of application. The herbicides were prepared and applied as wettable powders; dichlormid was applied as an emulsifiable concentrate, while the naphthalic anhydride was applied as a coating on the corn seed prior to planting.
as §3

[4] = system: corn; assay: Example 9, Procedure II: Herbicide No. 1 + pretilachlor (No. 13) with antidotes; format: in vivo; conditions: Herbicide Nos. 1 and 13, Table 9
Description: as §1, §2
(§4) This procedure is the same as Procedure I, but modified in the manner that after incorporation of the chemicals (herbicide and antidote) the containers with the covered seedbed were treated with an initial overhead irrigation equivalent to 0.6 cm rainfall, then subsequently sub-irrigated as required on greenhouse benches.
In this example the safening effect on a composition comprising Herbicide No. 1 and another leading rice herbicide, i.e., Herbicide No. 13, was investigated using the same antidotes and test procedure described in the preceding example. Herbicide No. 13 is pretilachlor, active ingredient used in the commercial rice herbicides RIFIT®, SOFIT® and SOFIT® SUPER.

[5] = system: corn; assay: Example 7, Procedure II: Herbicide No. 1 + metolachlor (No. 12) with antidotes; format: in vivo
Description: as §1, §2, §4
In this example, Procedure II described above was followed. The data from the tests in this example is shown in Table 6 and represents averages of duplicate replications.
The tests in this example followed the same procedure and antidotes used in Example 6. However, Herbicide No. 12 (metolachlor) was used as the co-herbicide with Herbicide No. 1.

[6] = system: corn; assay: Example 19, Procedure II: Herbicide No. 1 + ERADICANE EXTRA with added antidotes; format: in vivo; conditions: Herbicide No. 1 + ERADICANE EXTRA + added antidote, highest rates of antidotes and herbicides
Description: as §1, §2, §4
(§5) In the test reported in this example, the herbicidal composition was similar to that used in Example 16 in that Herbicide No. 1 was combined with EPTC (Herbicide No. 4) as a co-herbicide and the antidotes included Nos. 1, 2, 7, 13 and 15. However, in this test the EPTC was introduced as a formulation of ERADICANE (EPTC + the antidote R-25788, i.e., Antidote No. 1) at an application rate of 8.96 kg/ha. Thus, in this test two antidotes were present, viz. R-25788 and one of the auxilliary antidotes, No. 2, 13 and 15.
The test reported in this example was performed in the same manner and with the same antidotes used in Example 18, the only difference being the substitution of the commercial herbicidal product ERADICANE® EXTRA for ERADICANE®. ERADICANE EXTRA is a formulation containing both an antidote, i.e., R-29148 (Antidote No. 5 herein), and an extender, dietholate.

[7] = system: corn; assay: Example 11, Procedure II: Herbicide No. 1 + metazachlor (No. 14) with antidotes; format: in vivo; conditions: Herbicides 1 and 14, Table 11
Description: as §1, §2, §4
In this example, yet another α-chloroacetanilide co-herbicide, metazachlor (Herbicide No. 14) was combined with Herbicide No. 1 for investigation of the effect of various safeners on that composition. Metazachlor is the active ingredient in the commercial herbicide BUTISAN® S, used here as a 500 g/L formulation.

[8] = system: corn; assay: Example 12, Procedure II: Herbicide No. 1 + acetochlor (No. 6) with thirteen antidotes; format: in vivo; conditions: Herbicide No. 1:Herbicide 6:Antidote 0.56:2.24:2.24 kg/ha
Description: as §1, §2, §4
This example was designed to investigate the efficacy of thirteen different antidotes from different classes of chemistry as safeners against compositions of Herbicide No. 1 and acetochlor (Herbicide No. 6) as co-herbicide. Acetochlor is the active ingredient in the commercial herbicides GUARDIAN® and WENNER®.
The test procedure used in this example was Procedure II described above.

[9] = system: corn; assay: Example 13, Procedure II: Herbicide No. 1 + acetochlor (No. 6) with dichloroacetamide antidotes; format: in vivo; conditions: Herbicide Nos. 1 and 6, Table 13
Description: as §1, §2, §4
In this example a plurality of dichloroacetamide antidotes were tested for their safening efficacy against a herbicidal composition comprising Herbicide No. 1 and a co-herbicide, acetochlor (Herbicide No. 6) in corn in the presence of velvetleaf. The procedure used in this example was Procedure II above.

[10] = system: corn; assay: Example 18, Procedure II: Herbicide No. 1 + ERADICANE (EPTC + R-25788) with auxiliary antidotes; format: in vivo; conditions: Herbicide No. 1 + ERADICANE 8.96 kg/ha, PPI, Table 18
Description: as §1, §2, §4, §5
Test procedures were those of Procedure II above.

[11] = system: corn; assay: Example 15, Procedure II: Herbicide No. 1 + butylate (No. 10) with antidotes; format: in vivo; conditions: Herbicide No. 1 1.12 and 0.56 kg/ha + Herbicide No. 10 6.72 kg/ha PPI, Table 15
Description: as §1, §2, §4
This example describes experiments designed to investigate the antidotal efficacy of a plurality of antidotes against the herbicidal action of a combination of Herbicide No. 1 and butylate in corn and the prevalent weeds barnyardgrass and velvetleaf. The antidotes used in these experiments were Nos. 1-10, 12, 13 and 15.
The test procedure used in these experiments was that of Procedure II described above. The antidotes were applied to a soil cover layer by pipet after spraying the herbicides onto the soil, followed by incorporation and overhead irrigation.

Structure (SMILES) | safening of corn, assessment in words [2] | corn injury [6] [%] | safening of corn, assessment in words [7] | safening of corn, assessment in words [11] | other results
C=CCN(CC=C)C(=O)C(Cl)Cl [Antidote No. 1, Acetamide, N,N-bis(2-propenyl)-α,α-dichloro] | did not exhibit noticeable safening effect | 25 | outperformed the antidotes (2 and 13) of other chemistries |  | % Injury Corn [1]: 50%; inhibition at 7.41 g/ha ([3]; Zea mays, pre-emergence, Herbicide No. 3 0.25 G/ha + Antidote No. 1 7.41 G/ha, read-out: corn injury, percent inhibition of growth): 43%; safening of corn, assessment in words [4]: best safening effect across four treatments; safening of corn, assessment in words ([5]; Herbicide Nos. 1 and 12, Table 7): best safening effect across four treatments
O=C1OC(=O)c2cccc3cccc1c23 [Antidote No. 2, 1H, 3H-Naphtho [1,8-cd]pyran-1,3-dione] | significantly reduced corn injury by Herbicides No. 1 and 3 at the highest rates of application, but not at lower rates |  |  |  | safening of corn, assessment in words ([3]; Herbicide Nos. 1-3 at the two highest rates): significantly reduced corn injury; safening of corn, assessment in words [8]: performed at commercial levels
CC1CN(C(=O)C(Cl)Cl)C(C)(C)O1 (stereo not drawn) [Antidote No. 5, Oxazolidine, 3-(dichloroacetyl)-2,2,5-trimethyl-] |  |  |  |  | safening of corn, assessment in words [9]: Commercial-level safening was exhibited at all rates and combinations
O=C(C(Cl)Cl)N1CCOC12CCCCC2 [Antidote No. 7, 1-Oxa-4-azaspiro[4,5]decane, 4-(dichloroacetyl)-] |  | 25 | outperformed the antidotes (2 and 13) of other chemistries | complete protection against corn injury | corn injury, assessment in words [10]: slightly lower; % Injury Corn ([5]; Herbicide No.1 0.56 + No.12 3.36 kg/ha + antidote 2.24 kg/ha): 20%
O=C(C(Cl)Cl)N1CCCCN(C(=O)C(Cl)Cl)CCC1 [Antidote No. 8, 1,5-Diazacyclononane, 1,5-bis(dichloroacetyl)-] |  |  |  | complete protection against corn injury | 
CC1c2ccccc2CCN1C(=O)C(Cl)Cl (stereo not drawn) [Antidote No. 12] |  |  |  | complete protection against corn injury | 
